Experimental data taken from patent publication US10596190B2, “Method for reducing ototoxicity in pediatric patients receiving platinum-based chemotherapy” (priority 2017, dated 2020).
Like-named read-outs stand apart in the source and are kept apart here.

What was measured:
[1] = tested on: patients receiving Cisplatin chemotherapy for standard risk hepatoblastoma; type: in vivo, human
Description: The control arm included cisplatin only treated patients and the test arm including cisplatin treated patients followed by administration of STS.
The primary end point of the study was the rate of Brock grade ≥1 hearing loss determined after end of trial treatment or at an age of at least 3.5 years, whichever was later. Secondary end-points included: response to preoperative chemotherapy, complete resection, complete remission, event free survival (EFS), overall survival (OS), toxicity as graded by CTCAE v 3.0, long-term renal clearance, and feasibility of central audiology review
• Pre-operative randomised 1:1 chemotherapy (4 courses of Cisplatin, with or without STS, every second week) • Surgical removal of all remaining tumour lesions.
For all patients, the pre-surgery courses were given on day 1, 15, 29 and 43 (exceptionally, if surgery was delayed, courses could also be given on day 57 and 71). Post-surgery courses were started as soon as possible, but within 21 days with two courses given on day 1 and 15. […] The following treatment schedules were followed:
Administration Pre-hydration • At least 3 hours pre-hydration with 2.5% dextrose/0.45% saline • Run at 200 ml/m2/hr (total volume 600 ml/m^2) Cisplatin infusion over 6 hours • Cisplatin in 0.9% sodium chloride. […]

[2] = in a solution of sodium chloride; cited from earlier work
[3] = cited from earlier work
[4] = tested on: pediatric patients receiving cisplatin
Description: (§1) Secondary endpoints were frequency-specific hearing loss at 4 weeks (for 500 Hz, 1000 Hz, 2000 Hz, 4000 Hz, and 8000 Hz), haematological and renal toxicity, event free survival (defined as the time from study enrolment until disease relapse or progression, diagnosis of a second malignant neoplasm, or death, whichever came first), and overall survival (defined as the time from enrolment to death or last date confirmed alive). By protocol amendment on Mar.
We estimated the probability of remaining event free as a function of time post-enrolment using the method of Kaplan and Meier. We compared risk of event across groups defined by randomised regimen using the log-rank statistic. We generated relative hazard ratios (RHR) and 95% CIs by fitting a relative-risk regression model, using partial likelihood where the model contained the characteristic of interest as the only variable. We computed survival estimates as 3-year event-free survival and 3-year overall survival. We did a post-hoc analysis of event-free survival and overall survival by extent of disease using the same methods. We considered all eligible participants in the survival analyses by intention to treat. We did all statistical calculations using SAS (version 9.4) or Stata (version 14).

[5] = tested on: small cell lung cancer cell cultures; conditions: cited from earlier work
[6] = tested on: pediatric patients receiving cisplatin; conditions: for Incidence of hearing loss / Hearing loss: 4 weeks; for Mean change in hearing threshold: baseline to 4 weeks after cisplatin, negative = better threshold
Description: The study was designed as a multicentre, randomised, open-label, phase 3 clinical trial. Patients were enrolled at 38 participating Children's Oncology Group (COG) hospitals in the USA and Canada. Written consent or assent from participants or their legal guardians were obtained before registration. The study was approved by the US National Cancer Institute (NCI) Central Institutional Review Board and site institutional review boards. Co-enrollment onto a companion observational cohort study of ototoxicity grading scales was mandatory. Participants in the study were aged 1-18 years at study entry and were newly diagnosed with hepatoblastoma, germ cell tumour, medulloblastoma or CNS primitive neuroectodermal tumour, neuroblastoma, osteosarcoma, or other cancer types treated with cisplatin.
Key eligibility criteria included planned cumulative cisplatin dose of 200 mg/m^2 or more and infusion duration of 6 h or less; performance score of 50 or more by the Karnofsky (>16 years) or Lansky (≤16 years) scales; no previous cisplatin or carboplatin treatment; no known thiol hypersensitivity; and normal institutional laboratory values reflecting haematological, renal, and hepatic function. Normal hearing was required before enrolment as defined by hearing thresholds of 20 dB hearing level (HL) or less at 500-8000 Hz when measured with earphones or 25 dB HL or less when measured in the sound field, or as defined by brainstem auditory evoked response thresholds equivalent to behavioural thresholds of 20 dB HL or less. Previous cranial irradiation was initially not allowed but later permitted, provided hearing was normal, by a protocol amendment (Mar. 31, 2010) to augment trial recruitment. Patients were not eligible if they were registered on a cancer directed COG therapeutic study to avoid potential confounding of the primary aims by the ACCL0431 randomization.
The randomization was centrally computer-generated by the COG trial management system. Allocation was electronically concealed to all investigators, clinicians, and participants. Site research staff did the enrolment, entering eligibility confirmation and specification of stratification factors into the COG trial management system, and receiving the electronically generated allocation for the site. Randomization was 1:1 and was initially stratified into four groups defined by age (<5 years or ≥5 years) and duration of cisplatin infusion (<2 h or ≥2 h). Later, we added one separate stratum for eligible participants who had previously received cranial irradiation, irrespective of age or duration of cisplatin infusion. Randomization was masked for central reviewers of audiometry data, but was not placebo controlled for participants or treating clinicians to minimise complexity and cost for participating sites.
(§2) Cisplatin was administered as specified by each participant's cancer treatment plan. For participants randomly assigned to the control group, the cisplatin containing treatment regimen alone was to be administered. […] Concurrent use of other ototoxic drugs (eg, aminoglycosides and loop diuretics) was discouraged by protocol for all participants but captured in data reporting.
Hearing assessments were done at baseline, up to 8 days before each cisplatin course, 4 weeks after completion of the final cisplatin course, and 1 year later. Audiometry included measurement of bilateral pure tone air conduction thresholds at 500-8000 Hz with earphones or in the sound field using paediatric hearing assessment methods; otoscopy; immittance evaluation of middle ear function; and evoked otoacoustic emissions, if available. For participants unable to cooperate due to very young age, developmental disability, or medical status, brainstem auditory evoked response thresholds were to be measured instead.
Audiological testing was completed using standard clinical audiometers, middle ear analyzers, evoked potentials systems, and evoked otoacoustic emission OAE systems (if available).

[7] = tested on: pediatric patients receiving cisplatin; assay: Phase 3 trial of Example 1: haematological and renal toxicity, adverse events
Description: as §2, §1
For haematological and renal toxicity, denominators represent the number of participants who completed the required toxicity assessment during each cycle. For both types of toxicity, we assessed the hypothesis of no difference in incidence using a χ^2 test of proportions.

[8] = all eligible, 61 participants assigned

In the case of N.N.[Cl][Pt][Cl] [cisplatin], the “Patients having Brock grade 0 or little to no hearing loss” value ([1]; by treatment arm) is listed as “below 40%”, the “Incidence rate of Brock ≥1 hearing loss” value ([1]; by treatment arm (cisplatin only or cisplatin followed by STS)) is listed as 67% and the Stability post dilution [2] is listed as ≤ 7 days.

In the case of sodium thiosulfate, the “Excreted unchanged in the urine” value ([3]; following IV injection) is listed as “Up to 95%”, the Biological half-life ([3]; in vivo) is listed as 0.65 hours and the “Biological half-life, range dependent on dose” value ([3]; in vivo) is listed as 16.5-182 minutes. The “Deaths, number” value [4, 8] was 17, the “Events, number” value [4, 8] was 26 and the “Deaths, number” value ([4]; disseminated disease) was 11. The “Events, number” value ([4]; disseminated disease) was 12, the “Event-free survival vs control group” value ([4]; disseminated disease (n=47)) was “no difference” and the “Overall survival vs control group” value ([4]; disseminated disease (n=47)) was “significantly lower”. It also gave a 3-year event-free survival ([4]; disseminated disease, post-hoc) of 42%, a 3-year overall survival ([4]; disseminated disease, post-hoc) of 45% and a 3-year event-free survival ([4]; entire sample) of 54%. For the same molecule, the 3-year overall survival ([4]; entire sample) was 70%, the “Event-free survival or overall survival vs control group” value ([4]; entire sample) was “no significant difference” and the “Deaths, number” value ([4]; localised disease) was “six”. For the same molecule, the “Events, number” value ([4]; localised disease) was 14, the “Event-free survival or overall survival vs control group” value ([4]; localised disease (n=77)) was “no significant difference” and the 3-year event-free survival ([4]; localised disease, post-hoc) was 60%. For the same molecule, the 3-year overall survival ([4]; localised disease, post-hoc) was 83%, the “Effect of STS on cytotoxicity of etoposide” value ([5]; immediate or delayed addition of STS, incubation for 72 hours) was “no reduction of cytotoxicity” and the “Effect of STS on anti-tumor activity of doxorubicin, carmustine (BCNU), paclitaxel or methotrexate” value ([5]; similar studies) was “no reduction of anti-tumor activity”. For the same molecule, the “Hearing loss (ASHA criteria), proportion of participants” value ([6]; 4 weeks after final cisplatin, all assessable participants (49 in STS group)) was 28.6%, the “Incidence of hearing loss” value ([6]; after cisplatin infusion of 2-6 h) was 41.7% and the “Incidence of hearing loss” value ([6]; after cisplatin infusion of less than 2 h) was 16.0%. The “Incidence of hearing loss” value ([6]; older patients (5 years or more)) was 31.4%, the “Incidence of hearing loss” value ([6]; participants younger than 5 years) was 21.4% and the Hearing loss ([6]; post-hoc, eight irradiated participants excluded) was 26.7%. The Hearing loss ([6]; stratum of previous cranial irradiation) was 50%, the “Change between groups (Control vs STS) in mean hearing threshold change” value (“Change between groups (Control vs STS)” for short) ([6]; 500 Hz) was 0.4 and the “Mean change in hearing threshold” value ([6]; 500 Hz) was −1.5. The “Change between groups (Control vs STS)” value ([6]; 1000 Hz) was 0.4, the “Mean change in hearing threshold” value ([6]; 1000 Hz) was −0.7 and the “Change between groups (Control vs STS)” value ([6]; 2000 Hz) was 1.8. The “Mean change in hearing threshold” value ([6]; 2000 Hz) was −1.2, the “Change between groups (Control vs STS)” value ([6]; 4000 Hz) was 8.5 and the “Mean change in hearing threshold” value ([6]; 4000 Hz) was 1.1. The “Change between groups (Control vs STS)” value ([6]; 8000 Hz) was 7.3, the “Mean change in hearing threshold” value ([6]; 8000 Hz) was 9.7 and the ASHA-defined hearing loss ([6]; at 1 year, post-hoc analysis) was 28%. For the same molecule, the “Hypokalaemia (most common non-haematological adverse event), participant cycles” value ([7]; 25 of 147 participant cycles) was 17%, the “Aggregate nephrotoxicity, participant cycles affected” value ([7]; 37 of 147 participant cycles) was 25% and the “Grade 3-4 neutropenia, participant cycles” value ([7]; 117 of 177 participant cycles, irrespective of attribution) was 66%. For the same molecule, the “Haematological toxicity, participant cycles affected” value ([7]; 137 of 177 participant cycles) was 77%, the “Serious adverse events reported, number” value ([7]; in 26 patients) was 194 and the “Haematological serious adverse events, number” value ([7]; in vivo) was 70. For the same molecule, the “Hypophosphataemia and hypokalaemia vs control group” value ([7]; in vivo) was “more common”, the “Increased creatinine or reduced glomerular filtration rate meeting CTCAE grade 3 threshold” value ([7]; in vivo) was “no cases” and the “Non-haematological serious adverse events, number” value ([7]; in vivo) was 85. For the same molecule, the “Haematological serious adverse events deemed possibly related, number” value ([7]; of 70) was “four”, the “Haematological serious adverse events deemed unlikely related, number” value ([7]; of 70) was 13 and the “Haematological serious adverse events deemed unrelated, number” value ([7]; of 70) was 53. For the same molecule, the “Haematological serious adverse events probably or definitely related” value ([7]; of 70) was “none”, the “Non-haematological serious adverse events deemed possibly related, number” value ([7]; of 85) was 11 and the “Non-haematological serious adverse events deemed unlikely related, number” value ([7]; of 85) was 25. For the same molecule, the “Non-haematological serious adverse events deemed unrelated, number” value ([7]; of 85) was 49, the “Non-haematological serious adverse events probably or definitely related” value ([7]; of 85) was “none” and the “Serious adverse events deemed possibly related, number” value ([7]; of 194) was 20. The “Serious adverse events deemed unlikely related, number” value ([7]; of 194) was 62, the “Serious adverse events deemed unrelated, number” value ([7]; of 194) was 112 and the “Serious adverse events probably or definitely related” value ([7]; of 194) was “none”. For the same molecule, the “Serious adverse events: decreased platelet count, number” value ([7]; of 194, in 12 participants) was 23, the “Serious adverse events: decreased neutrophil count, number” value ([7]; of 194, in 14 participants) was 26 and the “Serious adverse events: anaemia, number” value ([7]; of 194, in ten participants) was 21.
